Test results from paper PMC9775191, “A Subset Screen of the Compounds Australia Scaffold Library Identifies 7-Acylaminodibenzoxazepinones as Potent and Selective Hits for Anti-Giardia Drug Discovery” (Biomedicines, 2022).
Where two headings read alike, the source gives them in different places.

How the values were obtained:
[1] = test system: G. duodenalis BRIS/91/HEPU/1279; experiment: Primary Giardia screen at 10 µM (live-cell imaging, automated counting); format: cell-based, Giardia duodenalis; conditions: for inhibition at 10 µM: Giardia duodenalis
Summary of the method: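 Singlicate, 10 μM final, 0.2% DMSO; sealed chambers, 3% O2/5% CO2/N2. Counts by live-cell imaging at 24 h and 48 h. % growth vs vehicle, media background subtracted; Z' per plate.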

[2] = test system: G. duodenalis BRIS/91/HEPU/1279; experiment: Giardia dose response assay, assemblage B; format: cell-based, Giardia duodenalis
Experimental: In these assays, compounds were serially diluted (8–12-point doubling dilutions in technical duplicate) in DMSO control media, with all test wells inoculated with parasites (1.5 × 10^4 parasites for BRIS/91/HEPU/1279 and BRIS/91/HEPU/1279m1, or 3 × 10^3 parasites for BRIS/87/HEPU/713). […] All plates were sealed in culture chambers and gassed with 3% O2, 5% CO2 in N2 and incubated at 37 °C for 48 h, with parasites imaged and enumerated at 24 and 48 h. Growth inhibition was calculated as a percentage relative to vehicle controls minus any background as described above and IC50 values were determined using log-linear interpolation as previously described. […] Statistical comparison of IC50 values when required were performed using Student’s t-test.

[3] = test system: Neonatal foreskin fibroblast (NFF) cells; experiment: Mammalian cell cytotoxicity assay (sulforhodamine B); format: cell-based, human; conditions: for inhibition at 20 µM: ±SD; for SI (48h Gd): Table S2, NFF vs 48 h Giardia IC50
Experimental: The selectivity of compounds of interest was assessed against NFF cells. Assays were performed using sulforhodamine B and included media only, negative (no compound, no DMSO), and vehicle (DMSO) controls as previously described. A chloroquine control plate was included in each assay. […] Repurchased SN00797640 was tested in dose–response from 100 µM against NFF. Selectivity indices (SI) were calculated by dividing mammalian cell IC50 values by G. duodenalis BRIS/91/HEPU/1279 IC50 values.

[4] = test system: Acinetobacter baumannii (ATCC 19606); experiment: Anti-bacterial activity assay; format: cell-based; conditions: ATCC19606, 50 µM
Experimental: (§1) The activity of compounds against methicillin resistant Staphylococcus aureus (ATCC 43300), Escherichia coli (ATCC 25922), Acinetobacter baumannii (ATCC 19606) and Klebsiella pneumoniae (ATCC 700603) was assessed at 50 µM in duplicate as previously described. In brief, mid-log phase bacteria cultures were added to 384-well microtiter plate wells containing compound to final cell density of 5 × 10^5 CFU/mL in 50 µL. Plates were then covered and incubated at 37 °C for 18 h without shaking. Inhibition of bacterial growth was determined by measuring absorbance at 600 nm (Tecan M1000 Pro monochromator plate reader) and calculating percentage growth inhibition relative to the negative media and bacteria without inhibitors. Vancomycin hydrochloride (Sigma-Aldrich an affiliate of Merck KGaA, Darmstadt, Germany, #861987) and colistin sulfate (Sigma-Aldrich an affiliate of Merck KGaA, Darmstadt, Germany, C4461) were on each plate as positive controls for Gram-positive (S. aureus) and Gram-negative (E. coli, A. baumannii and K. pneumoniae) bacteria, respectively.

[5] = test system: Escherichia coli (ATCC 25922); experiment: Anti-bacterial activity assay; format: cell-based; conditions: for inhibition at 50 µM: Escherichia coli, ATCC25922, 50 µM, read-out: Bacterial Inhibition E. coli
Experimental: as §1

[6] = test system: Klebsiella pneumoniae (ATCC 700603); experiment: Anti-bacterial activity assay; format: cell-based; conditions: ATCC700603, 50 µM, read-out: Bacterial Inhibition K. pneumoniae
Experimental: as §1

[7] = test system: methicillin resistant Staphylococcus aureus (ATCC 43300); experiment: Anti-bacterial activity assay; format: cell-based; conditions: for inhibition at 50 µM: Staphylococcus aureus, ATCC43300, 50 µM, read-out: Bacterial Inhibition S. aureus
Experimental: as §1

[8] = 24 h, first singlicate assay, read-out: % Inhibition n=1 24h
[9] = 24 h, re-assessment, read-out: % Inhibition n=2 24h
[10] = 24 h, read-out: Average % Inhibition 24h
[11] = 48 h, first singlicate assay, read-out: % Inhibition n=1 48h
[12] = 48 h, re-assessment, read-out: % Inhibition n=2 48h
[13] = 48 h, read-out: Average % Inhibition 48h
[14] = Giardia duodenalis, 24 h, read-out: G. duodenalis IC50 24h, Table S2, 24 h, ±SD, max 10 µM
[15] = Giardia duodenalis, 48 h, Table S2, 48 h, ±SD, max 10 µM, read-out: G. duodenalis IC50 48h

| IC50 [2, 14] [µM] | IC50 [2, 15] [µM] | Compound | inhibition at 10 µM [1, 8] [%] | inhibition at 10 µM [1, 9] [%] | inhibition at 10 µM [1, 10] [%] | inhibition at 10 µM [1, 11] [%] | inhibition at 10 µM [1, 12] [%] | inhibition at 10 µM [1, 13] [%] | inhibition at 20 µM ([3]; Homo sapiens, NFF) [%] | SI (48h Gd) [3] | inhibition at 50 µM [4] [%] | inhibition at 50 µM [5] [%] | inhibition at 50 µM [6] [%] | inhibition at 50 µM [7] [%] | also measured |
| --- | --- | --- | --- | --- | --- | --- | --- | --- | --- | --- | --- | --- | --- | --- | --- |
| > 10 | 4.58 ± 4.9 | COc1cccc(Nc2c3c(nc4ccccc24)CCC3)c1 [SN00784168, COc1cccc(c1)Nc1c2CCCc2nc2ccccc12] | 27.7 | 16.4 | 22 | 63.3 | 61.4 | 62.4 | 75.1 ± 0.3 | < 4 | -2.44 | 3.98 | -3.07 | -10.7 |  |
| > 10 | 6.39 ± 2.8 | CN(C)CCn1cc(C(=O)c2cc(Cl)ccc2O)cc1-c1nc2ccccc2c(=O)[nH]1 [SN00778038, CN(C)CCn1cc(cc1c1nc2ccccc2c(=O)[nH]1)C(=O)c1cc(Cl)ccc1O] | 45.3 | 44.7 | 45 | 85.2 | 86.5 | 85.8 | 8.4 ± 4.7 | > 5 | -8.73 | -2.44 | -1.96 | -9.58 |  |
| 7.64 | 7.68 | Nc1c(-c2nc(-c3ccccc3)cs2)c2ccccn2c1C(=O)c1ccc2c(c1)OCO2 [SN00785732, O=C(c1ccc2OCOc2c1)c1c(N)c(c2scc(n2)c2ccccc2)c2ccccn12] | 64.4 | 62 | 63.2 | 82.4 | 83.8 | 83.1 | 41.6 ± 2.7 | > 2 | 9.69 | 0.23 | 9.49 | 2.41 |  |
| 0.24 ± 0.04 |  | CC1CCN(C(=O)c2oc3ccccc3c2NC(=O)c2ccc([N+](=O)[O-])o2)CC1 [SN00788467] | 93.2 | 82.3 | 87.7 | 93.9 | 96.4 | 95.2 |  | > 166 | 3.19 | 3.73 | -1.21 | 99.1 | Average % Inhibition 48h ([1]; 48 h): > 90%; fold more potent than metronidazole ([2]; 48 h IC50): > 45 fold; IC50 ([2]; Giardia duodenalis, 48 h, BRIS/91/HEPU/1279, 48 h, mean ± SD, read-out: IC50 Giardia (48 h)): 0.06 µM; IC50 ([3]; Homo sapiens, NFF, mean ± SD, read-out: IC50 NFF): > 10 µM; Selectivity ([3]; NFF IC50 divided by G. duodenalis BRIS/91/HEPU/1279 IC50): >166; selectivity index over bacteria ([5]; E. coli, A. baumannii and K. pneumoniae / bacteria, Table S2): > 800; Bacterial Inhibition S. aureus ([7]; 50 µM): 99% |
| > 10 | > 10 | Cc1nn(-c2ccccc2)c2sc(C(=O)N3CCCCC3)cc12 [SN00783575, O=C(N1CCCCC1)c1cc2c(C)nn(c3ccccc3)c2s1] | 34 | 8.3 | 21.1 | 63.8 | 15.4 | 39.6 | 26.9 ± 2.5 |  | 15.1 | -4.12 | 16.3 | 6.02 |  |
| > 10 | 4.74 ± 6.4 | Cn1nccc1-c1cccc(-c2noc(-c3cccc(F)c3)n2)c1 [SN00798315, Fc1cccc(c1)c1onc(n1)c1cccc(c1)c1ccnn1C] | 24.1 | 11.1 | 17.6 | 66.9 | 61.2 | 64 | -9 ± 1.9 | > 4 | 1.7 | 2.55 | 9.56 | 1.07 |  |

Second part, the compound before the results:

| Compound | IC50 [2, 14] [µM] | IC50 [2, 15] [µM] | inhibition at 10 µM [1, 8] [%] | inhibition at 10 µM [1, 9] [%] | inhibition at 10 µM [1, 10] [%] | inhibition at 10 µM [1, 11] [%] | inhibition at 10 µM [1, 12] [%] | inhibition at 10 µM [1, 13] [%] | inhibition at 20 µM ([3]; Homo sapiens, NFF) [%] | SI (48h Gd) [3] | inhibition at 50 µM [4] [%] | inhibition at 50 µM [5] [%] | inhibition at 50 µM [6] [%] | inhibition at 50 µM [7] [%] | also measured |
| --- | --- | --- | --- | --- | --- | --- | --- | --- | --- | --- | --- | --- | --- | --- | --- |
| Cc1ccc(C)c(-c2cc3c4nn(CC(=O)N(C)c5ccc(F)cc5)c(=O)n4ccn3n2)c1 [SN00790641, Fc1ccc(cc1)N(C)C(=O)Cn1nc2c3cc(nn3ccn2c1=O)c1cc(C)ccc1C] | 2.84 | 3.41 ± 2.02 | 88.6 | 70.6 | 79.6 | 95 | 97.7 | 96.3 | 40.4 ± 1.1 | > 5 | 4.72 | 0.25 | 6.73 | -6.6 | Average % Inhibition 48h ([1]; 48 h): > 90% |
| COc1ccc(C)cc1N1C(=O)C(c2ccccc2)C(c2nc3ccccc3s2)=C1N (centres unmarked) [SN00776374, COc1ccc(C)cc1N1C(=C(c2nc3ccccc3s2)C(c2ccccc2)C1=O)N] | 1.76 ± 0.35 | 1.01 ± 0.29 | 90.5 | 90 | 90.3 | 95.8 | 97.6 | 96.7 | 100.4 ± 0.2 | < 20 | 13.3 | 2.94 | 11.7 | 16.6 | Average % Inhibition 48h ([1]; 48 h): > 90% |
| Cc1ccc(-n2c(=O)c3c(cnn3C)n(CC(=O)Nc3ccccc3C)c2=O)cc1 [SN00784346, Cc1ccc(cc1)n1c(=O)n(CC(=O)Nc2ccccc2C)c2cnn(C)c2c1=O] | > 10 | 7.66 | 52 | 55.8 | 53.9 | 77.6 | 76.3 | 76.9 | -1.1 ± 0.8 | > 2 | 0.24 | 3.09 | -2.01 | 5.68 |  |
| COc1ccc(Nc2cc(C)nc(N3CCN(C(=O)Nc4cccc(OC)c4)CC3)n2)cc1 [SN00793512, COc1ccc(cc1)Nc1cc(C)nc(n1)N1CCN(CC1)C(=O)Nc1cccc(OC)c1] | 8.74 | 8.63 ± 1.91 | 50.6 | 48.1 | 49.3 | 88.7 | 84.5 | 86.6 | 35.2 ± 2.5 | > 2 | 16.8 | 3.7 | 4.81 | 6.36 |  |
| COc1ccc(-c2csc(C3=C(N)N(CC(C)(C)CN(C)C)CC3=O)n2)cc1OC [SN00776314, COc1cc(ccc1OC)c1csc(n1)C1=C(N)N(CC1=O)CC(C)(C)CN(C)C] | > 10 | 9.16 | 31.7 | 16.2 | 24 | 85.1 | 68.5 | 76.8 | 24 ± 26.8 | > 2 | 9.53 | 5.58 | 10.9 | 13.2 | inhibition at 10 µM ([2]; Giardia duodenalis, read-out: % inhibition @ 10µM 48h (comment), Table S2 comment, 10 µM, 48 h): 48.3% |
